How the values were obtained:
Test in all cases: DSF 100 kinase selectivity screen;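 also: compound tested at 20 µM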
Format in all cases: binding
[1] = target: T1, ~100 representative kinases (Homo sapiens, UniProt P22830); conditions: protein FECH; average of three replicates
T1 construct: Recombinant protein kinase domains with a concentration of 2 μM
T1 sequence (P22830 55-423): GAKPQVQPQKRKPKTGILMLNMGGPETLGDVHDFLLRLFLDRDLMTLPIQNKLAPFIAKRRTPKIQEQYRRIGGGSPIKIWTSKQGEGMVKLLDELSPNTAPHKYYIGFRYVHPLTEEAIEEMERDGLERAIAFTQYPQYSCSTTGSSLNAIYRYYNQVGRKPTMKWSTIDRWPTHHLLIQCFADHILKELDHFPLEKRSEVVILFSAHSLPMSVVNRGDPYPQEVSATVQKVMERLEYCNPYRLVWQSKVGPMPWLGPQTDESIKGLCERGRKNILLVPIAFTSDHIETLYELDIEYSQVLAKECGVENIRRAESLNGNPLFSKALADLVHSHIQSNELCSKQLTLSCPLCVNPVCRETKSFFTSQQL
Experimental: (§1) Recombinant protein kinase domains with a concentration of 2 μM were mixed with a 20 μM compound solution in dimethyl sulfoxide (DMSO), 20 mM Hepes (pH 7.5), and 500 mM NaCl. SYPRO Orange (5000×, Invitrogen) was added as a fluorescence probe (1μl/ml). Subsequently, temperature-dependent protein unfolding profiles were measured using the QuantStudio 5 realtime PCR machine (Thermo Fisher Scientific, Waltham, MA, USA). […] The temperature was raised with a step rate of 3°C/min. […] Differences in melting temperature are given as ΔTm values in degrees Celsius. […]

[2] = target: T2, ~100 representative kinases (Homo sapiens, UniProt O14936); conditions: Protein CASK; average of three replicates
T2 construct: Recombinant protein kinase domains with a concentration of 2 μM
T2 sequence (O14936 1-926): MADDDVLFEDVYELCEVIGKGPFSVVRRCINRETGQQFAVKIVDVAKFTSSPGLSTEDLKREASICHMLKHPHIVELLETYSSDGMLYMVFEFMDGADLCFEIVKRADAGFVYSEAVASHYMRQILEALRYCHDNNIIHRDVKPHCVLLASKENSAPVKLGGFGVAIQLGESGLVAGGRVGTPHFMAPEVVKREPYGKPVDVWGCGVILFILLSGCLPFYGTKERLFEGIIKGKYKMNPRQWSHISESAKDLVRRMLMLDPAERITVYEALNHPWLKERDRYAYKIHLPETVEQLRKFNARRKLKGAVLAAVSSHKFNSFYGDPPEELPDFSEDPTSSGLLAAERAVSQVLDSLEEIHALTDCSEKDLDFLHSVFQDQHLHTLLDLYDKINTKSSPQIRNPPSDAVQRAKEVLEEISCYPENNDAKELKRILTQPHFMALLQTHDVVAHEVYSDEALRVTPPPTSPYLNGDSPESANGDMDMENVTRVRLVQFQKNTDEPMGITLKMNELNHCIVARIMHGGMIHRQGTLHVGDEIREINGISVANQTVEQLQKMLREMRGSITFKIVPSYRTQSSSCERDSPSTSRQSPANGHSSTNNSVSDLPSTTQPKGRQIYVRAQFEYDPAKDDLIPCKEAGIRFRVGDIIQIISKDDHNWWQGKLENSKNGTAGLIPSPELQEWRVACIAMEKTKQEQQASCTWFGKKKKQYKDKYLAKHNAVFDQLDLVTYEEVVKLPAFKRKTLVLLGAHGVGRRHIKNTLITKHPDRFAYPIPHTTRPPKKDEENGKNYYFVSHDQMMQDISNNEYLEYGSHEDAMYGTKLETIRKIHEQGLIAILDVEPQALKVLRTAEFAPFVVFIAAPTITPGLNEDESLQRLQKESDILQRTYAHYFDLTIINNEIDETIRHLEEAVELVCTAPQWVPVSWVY
Experimental: as §1

[3] = target: T3, ~100 representative kinases (Homo sapiens, UniProt Q13153); conditions: protein PAK1; average of three replicates
T3 construct: Recombinant protein kinase domains with a concentration of 2 μM
Experimental: as §1

[4] = target: T4, ~100 representative kinases (Homo sapiens, UniProt P45983); conditions: protein MAPK8; average of three replicates
T4 construct: Recombinant protein kinase domains with a concentration of 2 μM
Experimental: as §1

[5] = target: T5, ~100 representative kinases (Homo sapiens, UniProt Q13043); conditions: Protein STK4; DSF; average of three replicates
T5 construct: Recombinant protein kinase domains with a concentration of 2 μM
T5 sequence (Q13043 1-487): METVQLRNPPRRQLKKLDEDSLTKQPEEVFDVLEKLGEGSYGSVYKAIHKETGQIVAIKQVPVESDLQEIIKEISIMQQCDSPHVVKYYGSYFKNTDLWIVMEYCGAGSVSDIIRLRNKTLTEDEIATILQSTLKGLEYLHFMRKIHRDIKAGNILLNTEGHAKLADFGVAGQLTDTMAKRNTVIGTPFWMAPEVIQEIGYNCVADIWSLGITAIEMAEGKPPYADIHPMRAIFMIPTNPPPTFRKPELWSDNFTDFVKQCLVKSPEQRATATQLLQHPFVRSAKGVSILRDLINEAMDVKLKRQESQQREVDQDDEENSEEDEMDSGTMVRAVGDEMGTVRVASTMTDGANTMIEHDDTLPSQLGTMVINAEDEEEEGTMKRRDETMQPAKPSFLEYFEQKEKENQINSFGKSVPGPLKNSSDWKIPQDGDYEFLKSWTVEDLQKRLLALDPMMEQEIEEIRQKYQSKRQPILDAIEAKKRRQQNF
Experimental: as §1

[6] = target: T6, ~100 representative kinases (Homo sapiens, UniProt P45984); conditions: protein MAPK9; average of three replicates
T6 construct: Recombinant protein kinase domains with a concentration of 2 μM
Experimental: as §1

[7] = target: T7, ~100 representative kinases (Homo sapiens, UniProt P49841); conditions: protein GSK3B; average of three replicates
T7 construct: Recombinant protein kinase domains with a concentration of 2 μM
Experimental: as §1

[8] = target: T8, ~100 representative kinases (Homo sapiens, UniProt Q16539); conditions: protein MAPK14; average of three replicates
T8 construct: Recombinant protein kinase domains with a concentration of 2 μM
Experimental: as §1

[9] = target: T9, ~100 representative kinases (Homo sapiens, UniProt P51955); conditions: protein NEK2; average of three replicates
T9 construct: Recombinant protein kinase domains with a concentration of 2 μM
T9 sequence (P51955 1-445): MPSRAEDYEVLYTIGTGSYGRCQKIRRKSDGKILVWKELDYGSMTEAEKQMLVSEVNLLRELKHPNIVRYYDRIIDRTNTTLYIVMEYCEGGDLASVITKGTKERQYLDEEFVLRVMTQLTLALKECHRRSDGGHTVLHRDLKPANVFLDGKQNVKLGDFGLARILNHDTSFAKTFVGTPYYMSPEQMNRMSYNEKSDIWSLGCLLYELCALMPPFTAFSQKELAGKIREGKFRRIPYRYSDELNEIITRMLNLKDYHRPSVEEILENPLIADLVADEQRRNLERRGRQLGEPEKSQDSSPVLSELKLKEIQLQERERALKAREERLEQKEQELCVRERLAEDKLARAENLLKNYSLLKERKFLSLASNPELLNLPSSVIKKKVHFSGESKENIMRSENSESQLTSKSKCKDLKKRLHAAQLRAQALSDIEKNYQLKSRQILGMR
Experimental: as §1

T8 sequence (Q16539 whole entry, the tested form may be a part): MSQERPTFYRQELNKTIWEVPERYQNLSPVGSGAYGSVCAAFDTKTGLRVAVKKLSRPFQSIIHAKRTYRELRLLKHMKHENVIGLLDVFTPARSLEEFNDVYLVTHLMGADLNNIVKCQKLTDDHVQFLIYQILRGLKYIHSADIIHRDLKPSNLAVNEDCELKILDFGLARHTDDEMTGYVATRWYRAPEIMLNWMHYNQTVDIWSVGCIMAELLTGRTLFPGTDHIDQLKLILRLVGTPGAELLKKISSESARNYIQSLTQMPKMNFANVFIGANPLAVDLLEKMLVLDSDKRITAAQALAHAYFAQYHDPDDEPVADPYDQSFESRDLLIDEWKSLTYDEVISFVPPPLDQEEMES
T7 sequence (P49841 whole entry, the tested form may be a part): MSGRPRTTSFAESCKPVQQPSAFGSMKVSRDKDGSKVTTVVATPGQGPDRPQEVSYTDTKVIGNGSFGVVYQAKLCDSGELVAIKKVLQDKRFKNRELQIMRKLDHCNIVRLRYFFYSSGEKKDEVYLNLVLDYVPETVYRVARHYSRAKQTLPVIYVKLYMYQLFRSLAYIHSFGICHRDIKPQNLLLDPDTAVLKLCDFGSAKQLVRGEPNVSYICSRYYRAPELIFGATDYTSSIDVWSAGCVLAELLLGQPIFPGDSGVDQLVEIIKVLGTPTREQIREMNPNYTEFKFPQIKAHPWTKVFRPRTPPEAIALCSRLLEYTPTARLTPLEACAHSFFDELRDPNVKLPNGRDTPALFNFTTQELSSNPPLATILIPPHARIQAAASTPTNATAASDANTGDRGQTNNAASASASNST
T3 sequence (Q13153 whole entry, the tested form may be a part): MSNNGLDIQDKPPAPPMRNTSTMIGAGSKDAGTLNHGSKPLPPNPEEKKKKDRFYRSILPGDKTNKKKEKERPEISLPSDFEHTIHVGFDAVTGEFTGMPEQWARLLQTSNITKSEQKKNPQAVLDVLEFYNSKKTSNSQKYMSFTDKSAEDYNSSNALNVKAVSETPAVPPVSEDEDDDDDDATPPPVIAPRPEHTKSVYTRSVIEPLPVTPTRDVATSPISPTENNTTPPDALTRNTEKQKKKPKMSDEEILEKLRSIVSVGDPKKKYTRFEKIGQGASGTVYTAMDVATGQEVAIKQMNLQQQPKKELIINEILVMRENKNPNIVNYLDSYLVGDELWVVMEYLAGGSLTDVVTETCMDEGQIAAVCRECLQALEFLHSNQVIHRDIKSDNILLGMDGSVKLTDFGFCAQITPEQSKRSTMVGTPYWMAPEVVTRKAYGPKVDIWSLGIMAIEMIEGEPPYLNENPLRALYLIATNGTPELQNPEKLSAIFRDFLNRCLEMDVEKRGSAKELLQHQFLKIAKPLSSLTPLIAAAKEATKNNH
T4 sequence (P45983 whole entry, the tested form may be a part): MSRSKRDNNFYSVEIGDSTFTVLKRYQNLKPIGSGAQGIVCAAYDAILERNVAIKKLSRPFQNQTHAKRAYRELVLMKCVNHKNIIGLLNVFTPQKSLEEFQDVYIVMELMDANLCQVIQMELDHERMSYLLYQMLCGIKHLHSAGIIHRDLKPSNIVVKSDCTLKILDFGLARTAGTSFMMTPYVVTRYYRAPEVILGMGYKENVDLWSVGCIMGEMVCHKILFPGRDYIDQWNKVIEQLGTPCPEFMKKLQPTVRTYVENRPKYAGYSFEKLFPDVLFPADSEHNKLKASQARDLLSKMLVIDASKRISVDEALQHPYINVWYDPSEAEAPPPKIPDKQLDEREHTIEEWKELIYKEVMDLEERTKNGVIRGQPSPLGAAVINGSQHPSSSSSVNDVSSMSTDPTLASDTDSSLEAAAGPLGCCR
T6 sequence (P45984 whole entry, the tested form may be a part): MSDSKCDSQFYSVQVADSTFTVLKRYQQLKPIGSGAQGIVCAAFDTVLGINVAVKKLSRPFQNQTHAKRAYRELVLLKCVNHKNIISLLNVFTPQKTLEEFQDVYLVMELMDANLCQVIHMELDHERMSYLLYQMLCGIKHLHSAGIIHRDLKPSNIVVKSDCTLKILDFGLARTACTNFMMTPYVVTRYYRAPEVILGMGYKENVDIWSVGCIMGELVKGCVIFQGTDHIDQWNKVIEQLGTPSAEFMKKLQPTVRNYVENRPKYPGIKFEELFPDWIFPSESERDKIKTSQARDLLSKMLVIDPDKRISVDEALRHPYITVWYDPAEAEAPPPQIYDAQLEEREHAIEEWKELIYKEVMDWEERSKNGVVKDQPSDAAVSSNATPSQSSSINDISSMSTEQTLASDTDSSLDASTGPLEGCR

Compound | dTm [1] | dTm [2] | dTm [3] | dTm [4] | dTm [5] | dTm [6] | dTm [7] | dTm [8] | dTm [9]
O=C(Nc1ccccc1)C1(C(=O)Nc2cccc(-c3c[nH]c4ncnc(N5CCOCC5)c34)c2)CC1 [Compound 12] | 0.29 K | 0.25 K | 1.90 K | 1.81 K | 4.49 K | 2.81 K | 5.87 K | 0.0252 K | 1.92 K
O=C(Nc1ccc(Cl)cc1)C1(C(=O)Nc2cccc(-c3c[nH]c4ncnc(N5CCOCC5)c34)c2)CC1 [Compound 13] | -6.06 K | 0.70 K | 3.82 K | 3.26 K | 7.95 K | 3.96 K | 7.55 K | 1.55 K | 2.76 K
Cc1ccc(NC(=O)C2(C(=O)Nc3cccc(-c4c[nH]c5ncnc(N6CCOCC6)c45)c3)CC2)cc1 [Compound 14] | 0.67 K | 0.19 K | 2.44 K | 0.90 K | 4.82 K | 2.56 K | 4.34 K | 0.29 K | 0.85 K
CCc1ccc(NC(=O)C2(C(=O)Nc3cccc(-c4c[nH]c5ncnc(N6CCOCC6)c45)c3)CC2)cc1 [Compound 15] | -8.07 K | 0.36 K | 1.40 K | 1.56 K | 5.52 K | 4.14 K | 5.12 K | 0.36 K | 2.27 K
COc1ccc(NC(=O)C2(C(=O)Nc3cccc(-c4c[nH]c5ncnc(N6CCOCC6)c45)c3)CC2)cc1 [Compound 16] | 0.0636 K | 0.15 K | 0.47 K | 0.26 K | 2.68 K | 1.53 K | 2.09 K | -0.16 K | 2.18 K
CC(C)(C)c1cccc(NC(=O)C2(C(=O)Nc3cccc(-c4c[nH]c5ncnc(N6CCOCC6)c45)c3)CC2)c1 [Compound 22] | -3.46 K | 1.08 K | 3.87 K | 3.75 K | 5.49 K | 1.21 K | 6.13 K | 0.60 K | 0.62 K

Next, values leading:

dTm [1] | dTm [2] | dTm [3] | dTm [4] | dTm [5] | dTm [6] | dTm [7] | dTm [8] | dTm [9] | Compound
1.70 K | 0.19 K | 3.52 K | 2.52 K | 5.12 K | 2.95 K | 7.13 K | 0.53 K | 2.00 K | O=C(Nc1cccc(-c2c[nH]c3ncnc(N4CCOCC4)c23)c1)C1(C(=O)Nc2ccc(F)c(F)c2)CC1 [Compound 17]
-2.64 K | 0.56 K | 5.39 K | 3.23 K | 6.48 K | 5.44 K | 9.62 K | 1.31 K | 1.39 K | O=C(Nc1cccc(-c2c[nH]c3ncnc(N4CCOCC4)c23)c1)C1(C(=O)Nc2ccc(F)c(Cl)c2)CC1 [Compound 18]
-5.01 K | 1.26 K | 5.56 K | 3.53 K | 0.00 K | 5.82 K | 0.00 K | 3.30 K | -0.29 K | O=C(Nc1cccc(-c2c[nH]c3ncnc(N4CCOCC4)c23)c1)C1(C(=O)Nc2ccc(F)c(Br)c2)CC1 [Compound 19]
2.57 K | 0.17 K | 6.40 K | 3.09 K | 7.44 K | 6.61 K | 9.68 K | 1.97 K | 1.19 K | Cc1cc(NC(=O)C2(C(=O)Nc3cccc(-c4c[nH]c5ncnc(N6CCOCC6)c45)c3)CC2)ccc1F [Compound 20]
-0.18 K | 0.09 K | 4.31 K | 1.81 K | 3.89 K | 3.60 K | 8.20 K | 0.76 K | 1.38 K | COc1cc(NC(=O)C2(C(=O)Nc3cccc(-c4c[nH]c5ncnc(N6CCOCC6)c45)c3)CC2)ccc1F [Compound 21]
0.12 K | 0.06 K | 1.05 K | 1.59 K | 4.75 K | 2.02 K | 3.90 K | -0.38 K | 1.54 K | O=C(Nc1cccc(-c2c[nH]c3ncnc(N4CCOCC4)c23)c1)C1(C(=O)Nc2ccc(F)cc2F)CC1 [Compound 23]
0.38 K | -0.0179 K | 2.36 K | 2.35 K | 4.47 K | 2.21 K | 4.64 K | -0.59 K | 1.66 K | Cc1cc(F)ccc1NC(=O)C1(C(=O)Nc2cccc(-c3c[nH]c4ncnc(N5CCOCC5)c34)c2)CC1 [Compound 24]
-0.79 K | 1.03 K | 0.67 K | 0.77 K | 0.00 K | 4.88 K | 1.43 K | 2.03 K | -3.69 K | O=C(Nc1cccc(-c2c[nH]c3ncnc(N4CCOCC4)c23)c1)C1(C(=O)Nc2cc(Br)c(F)cc2F)CC1 [Compound 25]
